{
  "source": "patent US20070142395A1",
  "about": "“Treatment of sexual dysfunction with 1-[3-[4-(3-chlorophenyl)-1-piperazinyl]propyl]-5-methoxy-3,4-dihydro-2(1H)-quinolone or salt thereof” (Vela Pharmaceuticals, Inc., priority 2005, published 2007)",
  "system": "patients with MDD",
  "experiment": "Changes in Sexual Function Questionnaire (CSFQ) scores, double-blind placebo-controlled clinical study",
  "assay_type": "in vivo, Humans",
  "parameters": "key to CSFQ Desire/Interest score / CSFQ Arousal/Excitement score / CSFQ Orgasm/Completion score / CSFQ Total Score / CSFQ Pleasure score / CSFQ Desire/Frequency score: CSFQ items on 5-point scale; higher = more favorable sexual function",
  "procedure": "A double-blind, randomized, placebo-controlled, parallel-group study was performed to evaluate the efficacy, safety and tolerability of OPC-14523 in patients with MDD. The patients selected for participation in the trial had to meet DSM-IV-TR criteria for MDD (296.2x or 296.3x; diagnosis via MINI) and had had symptoms of depression for at least 2 months before the start of the double-blind treatment. Among other drugs prohibited during the study, patients were prohibited from taking drugs used to enhance sexual function, including, but not limited to, sildenafil, tadalafil and vardenafil, or taking psychopharmacologic drugs.\nThere were 131 patients assigned to receive OPC-14523 at the start of the study. One hundred twenty seven (127) of these patients took at least one dose of OPC-14523. There were 137 patients assigned to receive placebo at the start of the study. One hundred thirty three (133) of these patients took at least one dose of placebo.\nEach patient was expected to participate for up to 10 weeks. The 10 weeks included: i) a 4- to 10-day screening period, during which potential participants were administered placebo in a single-blind manner; ii) an 8-week double-blind treatment period; and iii) a 4- to 10- day post-treatment visit period. Baseline evaluations, including assessment of sexual function, were conducted on Day −1. The next day, Day 1, the double-blind medication was begun. All treatment was on an outpatient basis.\nThe dosages studied were 5 mg BID OPC-14523 (10 mg total daily dose of immediate release tablet of Example 1) and placebo. The drugs were taken after meals in the morning and in the evening, about 12 hours apart.\nData on sexual function were collected using the Changes in Sexual Function Questionnaire (CSFQ). The CSFQ is a 14-item self-report measure of sexual functioning vis-â-vis experiences of pleasure, desire, arousal, and orgasm, with a 5-point response option for each item. The 14-item validated CSFQ was developed from a questionnaire comprising 35 and 36 items for female and male respondents, respectively (Clayton et al., Psychopharmacol Bull. 33(4):731-45 (1997) and Clayton et al., Psychopharmacol Bull. 33(4):747-53 (1997), each incorporated herein by reference in its entirety). The CSFQ has also been independently validated (Bobes et al., J Sex Marital Ther. 26(2): 119-31(2000)). The 14-item CSFQ includes items 8, 11, 14, 19-24 from the interview version of the CSFQ (“CSFQ-I”); Clayton et al., Psychopharmacol Bull. 33(4):731-45 (1997)). The CSFQ differs for men and women, reflecting some variation in wording of items. Males were given the male clinical version, CSFQ-M-C, and women were given the female clinical version, CSFQ-F-C. CSFQ-F-C includes items 25, 27, 28, 30 and 31 from the questions for women on the CSFG-I. CSFQ-M-C includes items 28-32 from the questions for men on the CSFQ-I, as well as item 25 from the questions for women.\nThe 14-item CSFQ has subscales for sexual pleasure (1 item), desire/frequency (2 items), desire/interest (3 items), arousal (3 items), and orgasm (3 items). In addition, a 14-item total score may be calculated. Higher scores are indicative of more favorable sexual functioning. Threshold scores for total and sub-scales have been defined. A score below the threshold score indicates dysfunction.\nResults were scored and analyzed according to the CSFQ instruction manual. The p-values resulted from an analysis of covariance (ANCOVA) linear model where the dependent variable is the change from baseline and independent variables are site effect, treatment effect, and baseline. The p-value is from the Type III sums of squares t-test for the hypothesis that the treatment groups are the same versus the alternative they are different. Last observation carry-forward (LOCF) analysis was used as indicated. In the LOCF analysis, for patients who dropped out before completion of the study, the last observations were carried forward to the final time point. […]",
  "key": {"[1]": {"conditions": "all patients (men and women), Baseline, before treatment"}, "[2]": {"conditions": "all patients (men and women), Day 28, 5 mg BID, LOCF"}, "[3]": {"conditions": "all patients (men and women), Day 56, 5 mg BID, LOCF"}, "[4]": {"conditions": "men only, Baseline, before treatment"}, "[5]": {"conditions": "men only, Day 28, 5 mg BID, LOCF"}, "[6]": {"conditions": "men only, Day 56, 5 mg BID, LOCF"}, "[7]": {"conditions": "women only, Baseline, before treatment"}, "[8]": {"conditions": "women only, Day 28, 5 mg BID, LOCF"}, "[9]": {"conditions": "women only, Day 56, 5 mg BID, LOCF"}},
  "note": "Values joined by “and” are separate entries in the source; they are usually repeats but may differ in a detail not shown here. Identical values can stand only once. Marks after values point to notes of the source that are not given here.",
  "data": [
    {"smiles": "COc1cccc2c1CCC(=O)N2CCCN1CCN(c2cccc(Cl)c2)CC1", "note": "[OPC-14523, 1-[3-[4-(3-chlorophenyl)-1-piperazinyl]propyl]-5-methoxy-3,4-dihydro-2(1H)-quinolone]", "values": [
      {"measurement": "CSFQ Arousal/Excitement score", "setting": "[1]", "value": 8.97},
      {"measurement": "CSFQ Desire/Frequency score", "setting": "[1]", "value": 5.13},
      {"measurement": "CSFQ Desire/Interest score", "setting": "[1]", "value": 7.30},
      {"measurement": "CSFQ Orgasm/Completion score", "setting": "[1]", "value": 9.50},
      {"measurement": "CSFQ Pleasure score", "setting": "[1]", "value": 2.06},
      {"measurement": "CSFQ Total Score", "setting": "[1]", "value": 41.9},
      {"measurement": "CSFQ Arousal/Excitement score", "setting": "[2]", "value": 9.24},
      {"measurement": "CSFQ Desire/Frequency score", "setting": "[2]", "value": 5.39},
      {"measurement": "CSFQ Desire/Interest score", "setting": "[2]", "value": 7.66},
      {"measurement": "CSFQ Orgasm/Completion score", "setting": "[2]", "value": 9.56},
      {"measurement": "CSFQ Pleasure score", "setting": "[2]", "value": "2.41**"},
      {"measurement": "CSFQ Total Score", "setting": "[2]", "value": 43.4},
      {"measurement": "CSFQ Arousal/Excitement score", "setting": "[3]", "value": 9.55},
      {"measurement": "CSFQ Desire/Frequency score", "setting": "[3]", "value": "5.57*"},
      {"measurement": "CSFQ Desire/Interest score", "setting": "[3]", "value": "7.94*"},
      {"measurement": "CSFQ Orgasm/Completion score", "setting": "[3]", "value": 9.77},
      {"measurement": "CSFQ Pleasure score", "setting": "[3]", "value": "2.51 (p = 0.11)"},
      {"measurement": "CSFQ Total Score", "setting": "[3]", "value": "44.4 (p = 0.05)"},
      {"measurement": "sexual function overall, CSFQ Total Scores (in words)", "setting": "all patients, compared with placebo, Day 28 and/or Day 56", "value": "significantly improved sexual function overall"},
      {"measurement": "sexual desire (in words)", "setting": "both men and women", "value": "increased sexual desire"},
      {"measurement": "sexual pleasure and sexual arousal and excitement (in words)", "setting": "men", "value": "strong trend of improved sexual pleasure and sexual arousal and excitement"},
      {"measurement": "CSFQ Arousal/Excitement score", "setting": "[4]", "value": "10.5 and 10.48"},
      {"measurement": "CSFQ Desire/Frequency score", "setting": "[4]", "value": "5.8 and 5.77"},
      {"measurement": "CSFQ Desire/Interest score", "setting": "[4]", "value": "8.2 and 8.21"},
      {"measurement": "CSFQ Orgasm/Completion score", "setting": "[4]", "value": "11.3 and 11.33"},
      {"measurement": "CSFQ Pleasure score", "setting": "[4]", "value": "2.2 and 2.15"},
      {"measurement": "CSFQ Total Score", "setting": "[4]", "value": 47.6},
      {"measurement": "CSFQ Arousal/Excitement score", "setting": "[5]", "value": "11.13 (p = 0.07)"},
      {"measurement": "CSFQ Desire/Frequency score", "setting": "[5]", "value": "6.26*"},
      {"measurement": "CSFQ Desire/Interest score", "setting": "[5]", "value": "8.94*"},
      {"measurement": "CSFQ Orgasm/Completion score", "setting": "[5]", "value": 11.32},
      {"measurement": "CSFQ Pleasure score", "setting": "[5]", "value": "2.68***"},
      {"measurement": "CSFQ Total Score", "setting": "[5]", "value": "50.1*"},
      {"measurement": "CSFQ Arousal/Excitement score", "setting": "[6]", "value": "11.17 (p = 0.13)"},
      {"measurement": "CSFQ Desire/Frequency score", "setting": "[6]", "value": "6.38*"},
      {"measurement": "CSFQ Desire/Interest score", "setting": "[6]", "value": "8.91 (p = 0.07)"},
      {"measurement": "CSFQ Orgasm/Completion score", "setting": "[6]", "value": 11.34},
      {"measurement": "CSFQ Pleasure score", "setting": "[6]", "value": "2.60 (p = 0.10)"},
      {"measurement": "CSFQ Total Score", "setting": "[6]", "value": "50.2 (p = 0.12)"},
      {"measurement": "sexual function overall (in words)", "setting": "men, compared with placebo, Day 28 and/or Day 56", "value": "significantly improved sexual function overall"},
      {"measurement": "sexual interest (in words)", "setting": "men, p=0.07", "value": "improved sexual interest"},
      {"measurement": "total CSFQ and every subscale vs placebo (in words)", "setting": "summary", "value": "advantage over placebo"},
      {"measurement": "CSFQ Arousal/Excitement score", "setting": "[7]", "value": "7.9 and 7.91"},
      {"measurement": "CSFQ Desire/Frequency score", "setting": "[7]", "value": "4.7 and 4.68"},
      {"measurement": "CSFQ Desire/Interest score", "setting": "[7]", "value": "6.7 and 6.66"},
      {"measurement": "CSFQ Orgasm/Completion score", "setting": "[7]", "value": "8.2 and 8.21"},
      {"measurement": "CSFQ Pleasure score", "setting": "[7]", "value": "2.0 and 1.99"},
      {"measurement": "CSFQ Total Score", "setting": "[7]", "value": 37.8},
      {"measurement": "CSFQ Arousal/Excitement score", "setting": "[8]", "value": 7.91},
      {"measurement": "CSFQ Desire/Frequency score", "setting": "[8]", "value": 4.78},
      {"measurement": "CSFQ Desire/Interest score", "setting": "[8]", "value": 6.76},
      {"measurement": "CSFQ Orgasm/Completion score", "setting": "[8]", "value": 8.33},
      {"measurement": "CSFQ Pleasure score", "setting": "[8]", "value": 2.22},
      {"measurement": "CSFQ Total Score", "setting": "[8]", "value": 38.7},
      {"measurement": "CSFQ Arousal/Excitement score", "setting": "[9]", "value": 8.43},
      {"measurement": "CSFQ Desire/Frequency score", "setting": "[9]", "value": 5.01},
      {"measurement": "CSFQ Desire/Interest score", "setting": "[9]", "value": "7.26 (p = 0.08)"},
      {"measurement": "CSFQ Orgasm/Completion score", "setting": "[9]", "value": 8.69},
      {"measurement": "CSFQ Pleasure score", "setting": "[9]", "value": 2.46},
      {"measurement": "CSFQ Total Score", "setting": "[9]", "value": 40.4},
      {"measurement": "sexual desire/interest (in words)", "setting": "women, compared with placebo, Day 28 and/or Day 56", "value": "strong trend"},
      {"measurement": "sexual interest (in words)", "setting": "women, p=0.08", "value": "improved sexual interest"}
    ]}
  ]
}
